Results as given in publication PMC8358987 (Clinical cancer research : an official journal of the …, 2021).
One block for each molecule: values may come before it.

Tests used:
[1] = system: OATP1B1; details: ref prescribing information; cited from earlier work
[2] = cited from earlier work
[3] = system: OATP1B1; experiment: Mass spectrometric analysis of OATP1B1 tyrosine phosphorylation; type: cell-based, human; details: 10 μM nilotinib 15 minutes
[4] = target: T1, OATP1B1 (Homo sapiens, UniProt Q9Y6L6); type: cell-based; details: for Mechanism of OATP1B1 inhibition: kinetic analysis (Dixon plot) and pre-incubation effects; for Reduction of OATP1B1 function: overexpressing HEK293 cells, 10 μM TKI screen
T1 sequence (Q9Y6L6 1-691): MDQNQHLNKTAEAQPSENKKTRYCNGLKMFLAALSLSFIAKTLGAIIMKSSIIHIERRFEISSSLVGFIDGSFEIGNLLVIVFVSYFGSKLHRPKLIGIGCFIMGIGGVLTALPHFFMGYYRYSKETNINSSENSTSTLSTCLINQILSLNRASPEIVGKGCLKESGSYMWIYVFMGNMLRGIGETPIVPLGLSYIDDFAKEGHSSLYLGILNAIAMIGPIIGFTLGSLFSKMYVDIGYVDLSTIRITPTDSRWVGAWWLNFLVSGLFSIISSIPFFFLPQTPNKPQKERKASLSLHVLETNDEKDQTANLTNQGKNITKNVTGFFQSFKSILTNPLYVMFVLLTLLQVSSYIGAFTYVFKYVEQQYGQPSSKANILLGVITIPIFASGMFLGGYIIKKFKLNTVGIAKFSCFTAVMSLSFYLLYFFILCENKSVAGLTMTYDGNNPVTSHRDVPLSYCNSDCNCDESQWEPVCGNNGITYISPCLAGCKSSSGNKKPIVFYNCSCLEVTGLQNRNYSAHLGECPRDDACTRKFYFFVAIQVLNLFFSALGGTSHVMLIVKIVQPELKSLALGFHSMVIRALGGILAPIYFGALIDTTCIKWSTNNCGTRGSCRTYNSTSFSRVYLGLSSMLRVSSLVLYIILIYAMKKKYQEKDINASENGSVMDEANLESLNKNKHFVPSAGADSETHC

[5] = target: T1, OATP1B1; experiment: OATP1B1-dependent uptake of 3H-EβG in human plateable hepatocytes; type: cell-based; details: 10 μM, 15 min pre-incubation; 3H-EβG 1 μM, 2 minutes
[6] = system: OATP1B1; experiment: Surface expression of OATP1B1 by biotinylation; type: cell-based, human; details: 10 μM nilotinib
[7] = system: PKC; details: concentrations of nilotinib used in the study; cited from earlier work
[8] = target: LYN kinase (Homo sapiens, UniProt P07948); experiment: Kinase hotspot assay against LYN kinase; type: biochemical; details: for Inhibition of LYN kinase activity: 10-dose curve from 50 μM, 10 μM ATP
Sequence of LYN kinase (P07948 whole entry): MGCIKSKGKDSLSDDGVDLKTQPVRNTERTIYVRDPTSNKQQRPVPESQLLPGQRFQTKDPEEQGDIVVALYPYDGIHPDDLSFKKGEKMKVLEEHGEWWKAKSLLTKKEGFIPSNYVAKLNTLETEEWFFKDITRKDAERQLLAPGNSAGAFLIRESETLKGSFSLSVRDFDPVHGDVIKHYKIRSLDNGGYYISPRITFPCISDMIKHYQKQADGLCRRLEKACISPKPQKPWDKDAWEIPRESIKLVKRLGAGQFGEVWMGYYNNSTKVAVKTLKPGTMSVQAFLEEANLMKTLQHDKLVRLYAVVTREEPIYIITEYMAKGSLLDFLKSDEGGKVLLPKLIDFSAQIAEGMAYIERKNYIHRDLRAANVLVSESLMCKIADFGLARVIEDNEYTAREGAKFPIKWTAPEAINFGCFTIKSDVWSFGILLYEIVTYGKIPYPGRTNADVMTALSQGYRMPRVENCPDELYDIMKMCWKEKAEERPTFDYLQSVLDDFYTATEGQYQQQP

[9] = target: T1, OATP1B1; experiment: Cellular accumulation of 3H-lapatinib; type: in vitro ADME; details: 3H-lapatinib 1 μM

Mechanism of OATP1B1 inhibition [4]: predominantly non-competitive
Reduction of OATP1B1 function [4]: > 75%
Effect on OATP1B1-dependent transport ex vivo in human hepatocytes [5]: reduces OATP1B1-dependent transport
Compound: Cc1cn(-c2cc(NC(=O)c3ccc(C)c(Nc4nccc(-c5cccnc5)n4)c3)cc(C(F)(F)F)c2)cn1 [nilotinib]
Effect on overall tyrosine phosphorylation of OATP1B1 ([3]; overexpressing HEK293 cells): no significant effect
Effect on OATP1B1 phosphorylation at Y645 ([3]; P<0.05): significantly reduced
Effect on OATP1B1 phosphorylation of Y640 alone ([3]; trend, P = 0.11): not significantly reduced
Effect on membrane surface expression of OATP1B1 [6]: not associated with significantly reduced membrane surface expression
Effect on PKC activity [7]: do not affect PKC activity

Reduction of OATP1B1 function [4]: > 75%
Compound: CC(C)(C)c1nc(-c2cccc(NS(=O)(=O)c3c(F)cccc3F)c2F)c(-c2ccnc(N)n2)s1 [dabrafenib]
Effect on systemic concentrations of the OATP1B1 substrate rosuvastatin [2]: increase the systemic concentrations

Mechanism of OATP1B1 inhibition [4]: competitive
Inhibition of LYN kinase activity [8]: did not inhibit
Compound: CC(=O)Nc1cccc(-n2c(=O)n(C3CC3)c(=O)c3c(Nc4ccc(I)cc4F)n(C)c(=O)c(C)c32)c1 [trametinib]

Inhibition of LYN kinase activity [8]: did not inhibit
OATP1B1 substrate status [9]: transported substrate of OATP1B1
Compound: CS(=O)(=O)CCNCc1ccc(-c2ccc3ncnc(Nc4ccc(OCc5cccc(F)c5)c(Cl)c4)c3c2)o1 [lapatinib]
OATP1B1 substrate/inhibitor status per prescribing information [1]: can reduce OATP1B1 function

Reduction of OATP1B1 function [4]: > 75%
Compound: CNC(=O)c1cc(Oc2ccc(NC(=O)Nc3ccc(Cl)c(C(F)(F)F)c3)cc2)ccn1 [sorafenib]

The next lines start with the molecule.

Compound: O=C(Nc1cnn2ccc(N3CCC[C@@H]3c3cc(F)ccc3F)nc12)N1CC[C@H](O)C1 [larotrectinib]
OATP1B1 substrate/inhibitor status per prescribing information [1]: neither a substrate nor an inhibitor of OATP1B1

Compound: Cc1ccc(Nc2nccc(N(C)c3ccc4c(C)n(C)nc4c3)n2)cc1S(N)(=O)=O [pazopanib]
Effect on systemic concentrations of the OATP1B1 substrate rosuvastatin [2]: increase the systemic concentrations

Compound: CNC(=O)c1ccccc1Sc1ccc2c(/C=C/c3ccccn3)n[nH]c2c1 [axitinib]
Reduction of OATP1B1 function [4]: > 75%

Compound: COc1cc2nccc(Oc3ccc(NC(=O)C4(C(=O)Nc5ccc(F)cc5)CC4)cc3)c2cc1OC [cabozantinib]
Reduction of OATP1B1 function [4]: > 75%
IC50 [8]: 15 to 685 nM
